In ChEMBL document CHEMBL1146769, “The discovery of N-(1,3-thiazol-2-yl)pyridin-2-amines as potent inhibitors of KDR kinase” (Bioorg Med Chem Lett, 2004) one finds IC50 and Selectivity data, which are given here for 18 molecules.

In experiment [1] the target is Vascular endothelial growth factor receptor 2 (Homo sapiens, UniProt P35968). Briefly: Inhibitory activity towards vascular endothelial growth factor receptor 2.
In experiment [2] the target is Fibroblast growth factor receptor 1 (Homo sapiens) (UniProt P11362). Briefly: Selectivity for Fibroblast growth factor receptor 1 over (KDR) kinase insert domain receptor.
The target of experiment [3] is Fibroblast growth factor receptor 2 (Homo sapiens) (UniProt P21802). The experiment in a line: Selectivity for Fibroblast growth factor receptor 2 over (KDR) kinase insert domain receptor.
Experiment [4] has as its target Proto-oncogene tyrosine-protein kinase Src (Homo sapiens) (UniProt P12931). Briefly: Selectivity for Src protein tyrosine kinase over (KDR) kinase insert domain receptor.
In experiment [5] the target is Vascular endothelial growth factor receptor 1 (Homo sapiens) (UniProt P17948). Briefly: Selectivity for Vascular endothelial growth factor receptor 1 over (KDR) kinase insert domain receptor.
In experiment [6] the target is Vascular endothelial growth factor receptor 3 (Homo sapiens) (UniProt P35916). The experiment in a line: Selectivity for Vascular endothelial growth factor receptor 3 over (KDR) kinase insert domain receptor.
Experiment [7] has as its target Platelet-derived growth factor receptor beta (Homo sapiens) (UniProt P09619). Briefly: Selectivity for PDGFRbeta over (KDR) kinase insert domain receptor.

Chain of Vascular endothelial growth factor receptor 3 (Homo sapiens) (P35916 whole entry, the tested form may be a part): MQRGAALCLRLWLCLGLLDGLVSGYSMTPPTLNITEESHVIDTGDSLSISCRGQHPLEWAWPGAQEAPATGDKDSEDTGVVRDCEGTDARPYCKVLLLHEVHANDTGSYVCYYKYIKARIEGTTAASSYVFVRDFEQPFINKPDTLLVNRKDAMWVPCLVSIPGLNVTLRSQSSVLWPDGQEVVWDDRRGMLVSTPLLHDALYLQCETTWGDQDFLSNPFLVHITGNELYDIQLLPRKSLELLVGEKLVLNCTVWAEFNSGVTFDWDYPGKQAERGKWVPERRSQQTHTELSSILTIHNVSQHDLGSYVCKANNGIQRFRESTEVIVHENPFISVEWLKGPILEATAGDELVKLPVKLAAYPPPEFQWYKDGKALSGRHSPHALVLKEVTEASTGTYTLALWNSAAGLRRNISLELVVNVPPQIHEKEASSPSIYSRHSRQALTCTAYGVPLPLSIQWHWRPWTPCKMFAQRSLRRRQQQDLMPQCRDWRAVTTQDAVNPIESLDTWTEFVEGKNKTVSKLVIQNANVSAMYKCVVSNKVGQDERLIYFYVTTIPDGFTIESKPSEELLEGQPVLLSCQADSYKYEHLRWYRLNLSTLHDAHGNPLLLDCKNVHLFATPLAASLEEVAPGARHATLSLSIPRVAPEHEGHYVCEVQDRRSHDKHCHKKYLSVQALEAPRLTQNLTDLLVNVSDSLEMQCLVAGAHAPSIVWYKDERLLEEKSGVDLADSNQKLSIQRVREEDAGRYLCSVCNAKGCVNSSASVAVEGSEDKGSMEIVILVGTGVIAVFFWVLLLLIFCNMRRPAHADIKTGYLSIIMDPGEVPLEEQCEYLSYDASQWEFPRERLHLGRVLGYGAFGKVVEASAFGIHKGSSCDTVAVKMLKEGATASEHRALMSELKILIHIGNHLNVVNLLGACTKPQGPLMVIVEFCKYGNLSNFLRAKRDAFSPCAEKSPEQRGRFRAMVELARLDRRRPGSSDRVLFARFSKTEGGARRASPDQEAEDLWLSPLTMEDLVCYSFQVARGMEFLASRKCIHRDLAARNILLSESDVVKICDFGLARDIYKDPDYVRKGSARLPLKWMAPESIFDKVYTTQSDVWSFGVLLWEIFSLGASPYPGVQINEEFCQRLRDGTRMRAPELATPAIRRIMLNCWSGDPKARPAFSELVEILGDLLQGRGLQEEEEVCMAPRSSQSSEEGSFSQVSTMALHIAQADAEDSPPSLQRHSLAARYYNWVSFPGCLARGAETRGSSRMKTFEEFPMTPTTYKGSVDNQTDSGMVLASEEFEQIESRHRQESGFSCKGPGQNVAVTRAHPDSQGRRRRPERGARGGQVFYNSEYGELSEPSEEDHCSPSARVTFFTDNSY
Chain of Proto-oncogene tyrosine-protein kinase Src (Homo sapiens) (P12931 2-536 limits assumed): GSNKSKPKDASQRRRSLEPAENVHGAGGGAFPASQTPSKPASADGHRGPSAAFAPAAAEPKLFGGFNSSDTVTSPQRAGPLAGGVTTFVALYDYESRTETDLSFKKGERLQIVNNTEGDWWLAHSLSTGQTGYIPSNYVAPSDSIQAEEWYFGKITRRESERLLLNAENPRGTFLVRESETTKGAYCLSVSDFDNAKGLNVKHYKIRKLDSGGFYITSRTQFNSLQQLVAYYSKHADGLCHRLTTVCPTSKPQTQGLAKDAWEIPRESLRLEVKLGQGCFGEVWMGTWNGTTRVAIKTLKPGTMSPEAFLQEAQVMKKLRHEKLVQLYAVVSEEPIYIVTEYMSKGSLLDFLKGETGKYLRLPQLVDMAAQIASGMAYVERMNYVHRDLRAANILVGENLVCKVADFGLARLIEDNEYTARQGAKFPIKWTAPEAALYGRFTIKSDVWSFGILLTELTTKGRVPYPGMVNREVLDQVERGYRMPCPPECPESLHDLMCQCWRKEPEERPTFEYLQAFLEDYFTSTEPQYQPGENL
Chain of Vascular endothelial growth factor receptor 1 (Homo sapiens) (P17948 whole entry, the tested form may be a part): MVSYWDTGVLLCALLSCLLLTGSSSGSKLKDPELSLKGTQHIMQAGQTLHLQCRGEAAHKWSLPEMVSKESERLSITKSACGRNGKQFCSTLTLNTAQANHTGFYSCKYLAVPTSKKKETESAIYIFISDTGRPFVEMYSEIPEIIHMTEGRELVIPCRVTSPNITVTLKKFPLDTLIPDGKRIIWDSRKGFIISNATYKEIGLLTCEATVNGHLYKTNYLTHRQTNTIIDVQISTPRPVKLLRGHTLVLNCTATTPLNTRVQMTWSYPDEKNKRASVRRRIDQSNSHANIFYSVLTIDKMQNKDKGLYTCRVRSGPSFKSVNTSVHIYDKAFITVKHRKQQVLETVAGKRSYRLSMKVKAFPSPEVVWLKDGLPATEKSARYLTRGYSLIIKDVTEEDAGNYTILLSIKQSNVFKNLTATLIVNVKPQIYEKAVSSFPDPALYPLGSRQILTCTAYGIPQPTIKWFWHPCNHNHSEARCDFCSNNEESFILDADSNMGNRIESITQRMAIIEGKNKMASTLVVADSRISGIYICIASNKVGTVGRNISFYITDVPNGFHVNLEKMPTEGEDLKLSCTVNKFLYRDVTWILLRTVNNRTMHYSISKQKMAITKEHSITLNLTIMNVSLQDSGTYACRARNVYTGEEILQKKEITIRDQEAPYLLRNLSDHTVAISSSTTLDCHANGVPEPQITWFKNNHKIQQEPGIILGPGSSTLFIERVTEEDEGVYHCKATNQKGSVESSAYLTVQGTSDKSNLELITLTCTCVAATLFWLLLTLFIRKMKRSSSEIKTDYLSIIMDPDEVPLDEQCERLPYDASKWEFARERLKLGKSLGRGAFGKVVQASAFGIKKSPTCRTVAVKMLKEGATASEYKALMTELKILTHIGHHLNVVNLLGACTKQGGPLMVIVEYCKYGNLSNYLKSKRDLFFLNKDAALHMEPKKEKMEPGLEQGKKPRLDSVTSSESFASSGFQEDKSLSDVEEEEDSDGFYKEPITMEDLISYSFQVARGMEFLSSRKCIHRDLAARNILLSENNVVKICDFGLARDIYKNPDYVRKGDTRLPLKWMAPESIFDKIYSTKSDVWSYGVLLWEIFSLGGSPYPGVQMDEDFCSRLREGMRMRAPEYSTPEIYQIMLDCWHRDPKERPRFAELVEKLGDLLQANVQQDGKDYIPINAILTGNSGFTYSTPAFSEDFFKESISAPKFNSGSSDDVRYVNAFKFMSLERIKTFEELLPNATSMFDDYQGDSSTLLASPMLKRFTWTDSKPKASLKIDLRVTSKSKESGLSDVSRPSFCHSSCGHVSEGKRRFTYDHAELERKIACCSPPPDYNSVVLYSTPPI
Chain of Fibroblast growth factor receptor 2 (Homo sapiens) (P21802 22-821 limits assumed): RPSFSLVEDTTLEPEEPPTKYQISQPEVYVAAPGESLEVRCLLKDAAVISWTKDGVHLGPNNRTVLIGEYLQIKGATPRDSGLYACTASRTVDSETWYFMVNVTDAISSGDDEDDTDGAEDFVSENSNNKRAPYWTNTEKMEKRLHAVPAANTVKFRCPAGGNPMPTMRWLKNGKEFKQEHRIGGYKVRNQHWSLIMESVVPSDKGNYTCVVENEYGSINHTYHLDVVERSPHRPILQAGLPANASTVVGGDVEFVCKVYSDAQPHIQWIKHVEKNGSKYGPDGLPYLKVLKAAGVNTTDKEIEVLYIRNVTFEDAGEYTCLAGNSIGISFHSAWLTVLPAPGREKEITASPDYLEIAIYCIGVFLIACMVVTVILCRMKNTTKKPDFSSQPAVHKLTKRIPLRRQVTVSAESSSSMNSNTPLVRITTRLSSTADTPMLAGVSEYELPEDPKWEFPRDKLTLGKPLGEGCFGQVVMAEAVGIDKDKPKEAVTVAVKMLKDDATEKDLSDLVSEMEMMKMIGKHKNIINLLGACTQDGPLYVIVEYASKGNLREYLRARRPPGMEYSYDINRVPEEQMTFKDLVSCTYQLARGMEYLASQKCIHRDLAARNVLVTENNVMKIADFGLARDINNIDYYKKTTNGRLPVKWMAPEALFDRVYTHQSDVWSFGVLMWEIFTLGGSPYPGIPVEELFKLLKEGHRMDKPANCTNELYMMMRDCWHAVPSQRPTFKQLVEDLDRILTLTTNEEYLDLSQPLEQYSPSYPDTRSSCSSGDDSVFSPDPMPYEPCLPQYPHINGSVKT
Chain of Fibroblast growth factor receptor 1 (Homo sapiens) (P11362 22-822 limits assumed): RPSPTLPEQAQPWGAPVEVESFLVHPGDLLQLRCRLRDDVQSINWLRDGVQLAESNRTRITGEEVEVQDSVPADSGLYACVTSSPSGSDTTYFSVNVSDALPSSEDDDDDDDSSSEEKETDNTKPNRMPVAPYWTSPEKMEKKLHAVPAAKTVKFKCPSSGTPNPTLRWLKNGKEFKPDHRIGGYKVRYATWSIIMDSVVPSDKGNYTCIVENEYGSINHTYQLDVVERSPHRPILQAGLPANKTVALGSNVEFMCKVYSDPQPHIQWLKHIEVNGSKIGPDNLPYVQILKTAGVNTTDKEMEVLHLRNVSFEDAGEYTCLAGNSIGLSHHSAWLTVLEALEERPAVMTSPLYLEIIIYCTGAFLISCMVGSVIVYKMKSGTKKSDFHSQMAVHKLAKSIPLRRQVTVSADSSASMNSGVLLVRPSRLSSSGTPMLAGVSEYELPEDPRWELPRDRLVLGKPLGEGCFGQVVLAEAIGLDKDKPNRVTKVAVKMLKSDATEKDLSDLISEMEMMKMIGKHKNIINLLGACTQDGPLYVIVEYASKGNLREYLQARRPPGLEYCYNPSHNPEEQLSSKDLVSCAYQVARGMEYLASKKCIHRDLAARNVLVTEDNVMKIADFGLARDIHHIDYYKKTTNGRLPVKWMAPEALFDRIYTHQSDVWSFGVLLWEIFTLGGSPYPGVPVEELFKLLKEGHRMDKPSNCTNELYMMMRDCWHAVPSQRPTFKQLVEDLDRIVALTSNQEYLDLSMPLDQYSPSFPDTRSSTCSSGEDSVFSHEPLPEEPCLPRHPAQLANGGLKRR

By IC50 is commonly meant the point on the concentration scale where inhibition reaches its midpoint. Low values mean inhibition by little substance, high ones a need for much substance. Consider `c1ccc(-c2cnc(Nc3ccccn3)o2)cc1`, for which it took 1880 nM to reach half-maximal inhibition in experiment [1] (IC50).
In the case of `O=C(Nc1ncc(-c2ccccc2)s1)c1ccccc1`, the Selectivity in experiment [2] is 72; in experiment [3], 14; in experiment [4], over 240; in experiment [5], 4; in experiment [6], 1.
With `c1ccc(Nc2ncc(-c3ccccc3)s2)cc1`, inhibition in experiment [1] was half-maximal at 124 nM (IC50).
Still for that read-out and setting: to `COc1cccc(Nc2ncc(-c3ccccc3)s2)n1` belongs 3 nM.
On to `Cc1ccnc(Nc2ncc(-c3ccccc3)s2)c1`, for which the Selectivity is 220 in experiment [2]; 50 in experiment [3]; 0.5 in experiment [7]; 190 in experiment [4]; 7 in experiment [5]; 2 in experiment [6]. This molecule displayed an IC50 in experiment [1] of 6 nM.
Take `COc1ccnc(Nc2ncc(-c3ccccc3)s2)c1`: the IC50 in experiment [1] was 11 nM.
The same measure, in the same setting: to `Clc1cnc(Nc2ccccn2)s1` belongs 194 nM.
As for `Cc1cccc(Nc2ncc(-c3ccccc3)s2)n1`, the Selectivity in experiment [2] came to 600; in experiment [3] it was 210; in experiment [7] it was 0.3; in experiment [4], 760; in experiment [5], 8; in experiment [6], 3. For the same molecule, the half-maximal inhibitory concentration (IC50) in experiment [1] came out at 10 nM.
Regarding `Cc1cccnc1Nc1ncc(-c2ccccc2)s1`, the Selectivity in experiment [2] is 820; in experiment [3] it was 200; in experiment [7], 1; in experiment [4] it was 1200; in experiment [5] it was 16; in experiment [6], 3. The molecule also had an IC50 in experiment [1] of 13 nM.
As to `Brc1cccc(Nc2ncc(-c3ccccc3)s2)n1`, the Selectivity in experiment [2] is 1620; in experiment [3] it was 400; in experiment [7], 0.3; in experiment [4], 840; in experiment [5], 12; in experiment [6], 3. Besides, the IC50 in experiment [1] came to 14 nM.
`Brc1cnc(Nc2ccccn2)s1`: in experiment [1], the half-maximal inhibitory concentration (IC50) is 71 nM.
With `CCCCN(C)c1ccc(/N=N/c2ncc([N+](=O)[O-])s2)c(C)c1`, the Selectivity in experiment [2] was over 130; in experiment [3], over 130; in experiment [4] it was over 130; in experiment [5], over 130; in experiment [6], 1.
In experiment [1], `COc1cccnc1Nc1ncc(-c2ccccc2)s1` displayed an IC50 of 46 nM.
As for `N#Cc1cnc(Nc2ccccn2)s1`, the Selectivity in experiment [2] was found to be 214; in experiment [3], 107; in experiment [7], 68; in experiment [4] it was 678; in experiment [5] it was 30; in experiment [6], 4. The half-inhibitory concentration (IC50) in experiment [1] stood at 36 nM.
Turning to `c1ccc(-c2cnc(Nc3ccncc3)s2)cc1`, the IC50 in experiment [1] is 259 nM.
As for `Clc1ccc(Nc2ncc(-c3ccccc3)s2)nc1`, the Selectivity in experiment [2] is over 580; in experiment [3], over 580; in experiment [7], 0.1; in experiment [4] it was over 580; in experiment [5], 6; in experiment [6], 1. For the same molecule, 35 nM corresponded to half-maximal inhibition in experiment [1] (IC50).
Take `Cc1ccc(Nc2ncc(-c3ccccc3)s2)nc1`: the Selectivity turned out to be 220 in experiment [2]; 70 in experiment [3]; 0.3 in experiment [7]; 570 in experiment [4]; 5 in experiment [5]; 1 in experiment [6]. The molecule further returned an IC50 in experiment [1] of 19 nM.
For `Cc1cnc(Nc2ccccn2)s1`, in experiment [1], it took 1270 nM to reach half-maximal inhibition (IC50).
